The record followed here is ChEMBL document CHEMBL1201862, “PubChem BioAssay data set” (2004).

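48-hour exposure; five concentrations; linearly interpolated endpoints. GI50 is the concentration that inhibits growth by half.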 Calls of active or inactive are those of the source. No stated cut-off is given here; in the data, active = GI50 up to about 1.1 µM and inactive = higher. A value given as a limit tells only on which side of the number the result lay.

What all share (test): NCI anticancer screen, dose series, 48 h
Experiment [1] has as its system IGROV-1.
The subject of experiment [2] is TK-10.
The test system of experiment [3] is UACC-62.
Experiment [4] deals with Malme-3M.
The subject of experiment [5] is MOLT-4.
Experiment [6] concerns RXF 393.
Experiment [7] concerns RPMI-8226.
Experiment [8] deals with SNB-75.
In experiment [9] the test system is UO-31.
For experiment [10], the system named is HCT-15.
Experiment [11] concerns SF-295.
Experiment [12] deals with ACHN.
The subject of experiment [13] is A549.
Experiment [14] has as its system U-251.
Experiment [15] relates to NCI-H460.
For experiment [16], the system named is SK-MEL-5.
Experiment [17] has as its system EKVX.
Experiment [18] relates to NCI-H226.
The subject of experiment [19] is SK-MEL-28.

In the case of `c1ccc(C2C3=C(Nc4ncnn42)c2ccccc2C3)cc1` (configuration not stated), the GI50 is 86.1 µM (inactive) in [1]; 35 µM (inactive) in [2]; 4.99 µM (inactive) in [3]; 15.6 µM (inactive) in [4]; 17.4 µM (inactive) in experiment [5]; 21.1 µM (inactive) in experiment [6]. Besides, the GI50 is 29.5 µM (inactive) in [7]; 83.9 µM (inactive) in experiment [8]; 48.2 µM (inactive) in experiment [9]; 20.1 µM in experiment [10]; 8.02 µM (inactive) in [11]; 82.6 µM (inactive) in experiment [12]. The GI50 in [13] is 34.5 µM (inactive); in experiment [14], 2.93 µM (inactive); in experiment [15], 12.1 µM (inactive); in [16], 10.9 µM (inactive); in [17] it was 87.5 µM (inactive).

Turning to `CC(=O)Nc1ccc(/C=c2\sc3nnc(-c4cccnc4)n3c2=O)cc1`, the GI50 is 16.9 µM (inactive) in experiment [1]; 21.6 µM (inactive) in experiment [2]; 13.4 µM (inactive) in experiment [3]; 19.1 µM (inactive) in [4]; 19.7 µM (inactive) in experiment [5]; 22.3 µM (inactive) in experiment [6]. For the same molecule, the GI50 was 22.2 µM (inactive) in experiment [8]; 12 µM (inactive) in experiment [9]; 17.6 µM in [10]; 36.4 µM (inactive) in [11]; 49.7 µM (inactive) in experiment [18]; 17 µM (inactive) in experiment [19]. The GI50 in experiment [12] was 14 µM (inactive); in experiment [13] it was 42.1 µM (inactive); in experiment [14], 17.8 µM (inactive); in [15], 16.3 µM (inactive); in [16], 17.4 µM (inactive); in experiment [17], 18.9 µM (inactive).

Take `CCc1ccc(/N=C\c2cc(OC)c(OC)c(OC)c2)cc1`: the GI50 in [1], in experiment [2], in [3], in [4], in [5] and in [6] was > 100 µM (inactive) throughout. The GI50 is 16.6 µM (inactive) in experiment [7]; > 100 µM (inactive) in experiment [8]; > 100 µM (inactive) in experiment [9]; more than 100 µM in experiment [10]; > 100 µM (inactive) in [11]; > 100 µM (inactive) in experiment [19]. The GI50 in experiment [12] was > 100 µM (inactive); in experiment [13] it was > 100 µM (inactive); in experiment [14], > 100 µM (inactive); in experiment [15] it was 37.7 µM (inactive); in experiment [16] it was > 100 µM (inactive); in experiment [17] it was > 100 µM (inactive).

In the case of `COc1ccc(/C=C/C(=O)c2c(-c3ccccc3)nn(C)c(=O)c2N2CCCCC2)cc1`, the GI50 is 25 µM (inactive) in [1]; 37.1 µM (inactive) in experiment [2]; 15.7 µM (inactive) in [3]; 3.94 µM (inactive) in experiment [5]; 12 µM (inactive) in [6]; 5.26 µM (inactive) in experiment [7]. Besides, the GI50 in experiment [9] is 13.9 µM (inactive); in [10], 20.7 µM; in [11], 21.6 µM (inactive); in experiment [19] it was 14.9 µM (inactive); in experiment [12] it was 40.1 µM (inactive); in [13] it was 16.8 µM (inactive). The GI50 is 14.5 µM (inactive) in [14], 17.8 µM (inactive) in experiment [15], 12.8 µM (inactive) in experiment [16] and 11.7 µM (inactive) in experiment [17].

For the molecule `CCOC(=O)CC1=N/C(=N/c2cc(Cl)ccc2Cl)SC1`, the GI50 in experiment [1] is > 100 µM (inactive); in experiment [2] it was > 100 µM (inactive); in experiment [3], > 100 µM (inactive); in experiment [4] it was > 100 µM (inactive); in experiment [6], > 100 µM (inactive); in experiment [8] it was 78 µM (inactive). Also, the GI50 in [9] was > 100 µM (inactive); in [10], 59.4 µM; in experiment [11], > 100 µM (inactive); in experiment [18] it was > 100 µM (inactive); in [19] it was > 100 µM (inactive); in experiment [12] it was > 100 µM (inactive). Also, the GI50 in [13], in experiment [14], in [15], in experiment [16] and in [17] was > 100 µM (inactive) each time.

As to `NC(=O)c1cc(-c2ccc(-n3ccnc3)cc2)nnc1O`, the GI50 in [1], in experiment [2], in experiment [3], in [4], in [5] and in experiment [6] was > 100 µM (inactive) each time. Also, the GI50 was > 100 µM (inactive) in experiment [7]; > 100 µM (inactive) in [8]; > 100 µM (inactive) in [9]; more than 100 µM in experiment [10]; > 100 µM (inactive) in experiment [19]; > 100 µM (inactive) in [12]. The GI50 in experiment [13], in experiment [14], in experiment [15], in experiment [16] and in experiment [17] was > 100 µM (inactive) throughout.

With `Nc1c(-c2nc3ccccc3s2)[n+]([O-])c2ccccc2[n+]1[O-]`, the GI50 in experiment [1] is 29.9 µM (inactive); in experiment [2] it was 42.1 µM (inactive); in [3], 33.8 µM (inactive); in experiment [4] it was 30.4 µM (inactive); in experiment [5], 32.7 µM (inactive); in experiment [7], 25.8 µM (inactive). Further, the GI50 is 26.7 µM (inactive) in experiment [8]; 21.8 µM (inactive) in experiment [9]; 23.6 µM (inactive) in experiment [11]; 54.7 µM (inactive) in experiment [18]; 25.2 µM (inactive) in [19]; 24.6 µM (inactive) in experiment [12]. Besides, the GI50 in experiment [13] is 36.4 µM (inactive); in experiment [14], 38.9 µM (inactive); in experiment [15], 28.1 µM (inactive); in experiment [16], 17 µM (inactive); in experiment [17] it was 51.6 µM (inactive).

Take `O=C(Nc1ccc(Cl)cc1C(=O)O)c1ccc([N+](=O)[O-])cc1`: the GI50 in experiment [1] is 17.4 µM (inactive); in experiment [2] it was 31.4 µM (inactive); in experiment [3] it was 14.5 µM (inactive); in experiment [4], 4.95 µM (inactive); in experiment [5], 22.4 µM (inactive); in experiment [7], 26.5 µM (inactive). Moreover, the GI50 in [8] is 45.4 µM (inactive); in experiment [9] it was 19 µM (inactive); in [10], 16.7 µM; in experiment [11], 23.7 µM (inactive); in experiment [18], 11.2 µM (inactive); in experiment [19], 28.2 µM (inactive). Further, the GI50 in experiment [12] was 17.1 µM (inactive); in [13] it was 33.7 µM (inactive); in [14] it was 18.8 µM (inactive); in [15], 18.5 µM (inactive); in experiment [16] it was 20.3 µM (inactive); in experiment [17] it was 29.5 µM (inactive).

Turning to `O=C1c2ccc(O)cc2C(=O)c2ccc(O)cc21`, the GI50 is 48.3 µM (inactive) in [1]; 61.8 µM (inactive) in [2]; 56.8 µM (inactive) in [3]; 57.4 µM (inactive) in experiment [4]; 31.6 µM (inactive) in [5]; 29.9 µM (inactive) in experiment [6]. The GI50 in experiment [7] was 42.8 µM (inactive); in [8], 29.6 µM (inactive); in [9], 24.3 µM (inactive); in experiment [10], 52.5 µM; in experiment [11], > 100 µM (inactive); in experiment [19] it was 78.5 µM (inactive). In addition, the GI50 in experiment [12] is 36.9 µM (inactive); in [13], 54.6 µM (inactive); in [14] it was 49.4 µM (inactive); in experiment [15] it was 53.2 µM (inactive); in [16] it was > 100 µM (inactive); in [17], 67.3 µM (inactive).

As for `Cc1cc2c(c(N)c1C)C(=O)c1ccccc1C2=O`, the GI50 in [1] is 12.6 µM (inactive); in experiment [2], 37.5 µM (inactive); in experiment [3], 5.12 µM (inactive); in experiment [4], 42.3 µM (inactive); in experiment [5], > 100 µM (inactive); in experiment [6], 29 µM (inactive). In addition, the GI50 was 52.1 µM (inactive) in [7]; 12.5 µM (inactive) in experiment [8]; 10.6 µM (inactive) in experiment [9]; 45.8 µM in experiment [10]; 27.4 µM (inactive) in experiment [11]; 14.1 µM (inactive) in experiment [12]. Also, the GI50 in experiment [13] is 26.3 µM (inactive); in experiment [14], 20.3 µM (inactive); in experiment [15] it was 34.5 µM (inactive); in [16] it was 20.2 µM (inactive).

Turning to `C[N+]1(C)C/C(=C\c2ccncc2)C(=O)/C(=C/c2ccncc2)C1`, the GI50 in experiment [1], in experiment [2], in experiment [3], in [4], in experiment [5] and in experiment [6] was > 100 µM (inactive) in each case. Besides, the GI50 was 63.8 µM (inactive) in experiment [7]; > 100 µM (inactive) in experiment [8]; > 100 µM (inactive) in [9]; more than 100 µM in experiment [10]; > 100 µM (inactive) in experiment [11]; > 100 µM (inactive) in [19]. Further, the GI50 is > 100 µM (inactive) in experiment [12]; > 100 µM (inactive) in [13]; 85.5 µM (inactive) in experiment [14]; > 100 µM (inactive) in [15]; > 100 µM (inactive) in experiment [16]; > 100 µM (inactive) in [17].

Turning to `O=C(NCCCN1CCN(CCCNC(=O)c2cccc3ccccc23)CC1)c1cccc2ccccc12`, the GI50 in experiment [1] is 78.3 µM (inactive); in [2], 65.3 µM (inactive); in [3], > 100 µM (inactive); in experiment [4], 57.4 µM (inactive); in experiment [5], > 100 µM (inactive); in [7], > 100 µM (inactive). In addition, the GI50 in experiment [8] is 20.9 µM (inactive); in [9] it was 32.3 µM (inactive); in experiment [10], more than 100 µM; in [11], 54.8 µM (inactive); in [18] it was > 100 µM (inactive); in [12], > 100 µM (inactive). Further, the GI50 in [13] was > 100 µM (inactive); in experiment [14], 97.5 µM (inactive); in experiment [15], 93.1 µM (inactive); in experiment [16] it was 36.4 µM (inactive); in [17] it was > 100 µM (inactive).
